Experimental data from patent US7148232B2, “Oxazolo, thiazolo and selenazolo [4,5-c]-quinolin-4-amines and analogs thereof” (3M Innovative Properties Company, priority 1998, dated 2006).

Columns and labels:
interferon (α) [1] = experiment: Interferon (α) induction in human cells (in vitro human blood cell system, interferon by bioassay); format: cell-based; details: human PBM's, 48 hours
Protocol: An in vitro human blood cell system was used to assess interferon induction by compounds of the invention. Activity is based on the measurement of interferon secreted into culture media. Interferon is measured by bioassay.
Whole blood is collected by venipuncture into EDTA vacutainer tubes. Peripheral blood mononuclear cells (PBM's) are separated from whole blood by using either LeucoPREP™ Brand Cell Separation Tubes (available from Becton Dickinson) or Ficoll-Paque® solution (available from Pharmacia LKB Biotechnology Inc, Piscataway, N.J.). […] 200 μL portions of PBM suspension are added to 96 well (flat bottom) sterile tissue culture plates (Becton Dickinson Labware, Lincoln Park, N.J.).
The compounds are solubilized in ethanol, dimethyl sulfoxide or tissue culture water then diluted with tissue culture water, 0.01N sodium hydroxide or 0.01N hydrochloric acid (The choice of solvent will depend on the chemical characteristics of the compound being tested.). Ethanol or DMSO concentration should not exceed a final concentration of 1% for addition to the culture wells. Compounds are initially tested in a concentration range of from about 0.1 μg/mL to about 5 μg/mL. Compounds which show induction at a concentration of 0.5 μg/mL are then tested in a wider concentration range.
The solution of test compound is added in a volume (less than or equal to 50 μL) to the wells containing 200 μL of diluted whole blood or of PBM's in media. Solvent and/or media is added to control wells (wells with no test compound) and as needed to adjust the final volume of each well to 250 μL. The plates are covered with plastic lids, vortexed gently and then incubated for 48 hours at 37° C. with a 5% carbon dioxide atmosphere.
Following incubation, the plates are covered with parafilm and then centrifuged at 1000 rpm for 10 to 15 minutes at 4° C. in a Damon IEC Model CRU-5000 centrifuge. Media (about 200 μL) is removed from 4 to 8 wells and pooled into 2 mL sterile freezing vials. Samples are maintained at −70° C. until analysis.
Interferon is determined by bioassay using A549 human lung carcinoma cells challenged with encephalomyocarditis. The details of the bioassay method have been described by G. L. Brennan and L. H. Kronenberg in “Automated Bioassay of Interferons in Micro-test Plates”, Biotechniques, June/Jul. […] The incubated cells are infected with an inoculum of encephalomyocarditis virus. The infected cells are incubated for an additional period at 37° C. before quantifying for viral cytopathic effect. The viral cytopathic effect is quantified by staining followed by spectrophotometric absorbance measurements. Results are expressed as alpha reference units/mL based on the value obtained for NIH HU IF-L standard.
Compounds of the invention were tested for their ability to induce interferon in human cells using the test method described above.

[2] = test system: tumor necrosis factor (α); experiment: Cytokine induction in human cells: tumor necrosis factor (α) secreted by PBMCs (ELISA); format: cell-based; details: 18 to 24 hours
Protocol: (§1) An in vitro human blood cell system was used to assess cytokine induction by compounds of the invention.
(§2) Whole blood is collected by venipuncture into EDTA vacutainer tubes from healthy human donors. […] The PBMC suspension is added to 48 well flat bottom sterile tissue culture plates (Costar, Cambridge, Mass. or Becton Dickinson Labware, Lincoln Park, N.J.) containing an equal volume of RPMI complete media containing test compound.
(§3) The compounds are solubilized in dimethyl sulfoxide (DMSO). The DMSO concentration should not exceed a final concentration of 1% for addition to the culture wells.
(§4) The solution of test compound is added at 60 μM to the first well containing RPMI complete and serial 3 fold dilutions are made. The PBMC suspension is then added to the wells in an equal volume, bringing the test compound concentrations to the desired range (0.12 to 30 μM). The final concentration of PBMC suspension is 1.5–2×10^6 cells/mL. The plates are covered with sterile plastic lids, mixed gently and then incubated for 18 to 24 hours at 37° C. in a 5% carbon dioxide atmosphere.
(§5) Following incubation the plates are centrifuged for 5–10 minutes at 1000 rpm (˜200×g) at 4° C. The cell culture supernatant is removed with a sterile polypropylene pipet and transferred to sterile polypropylene tubes. Samples are maintained at −30 to −70° C. until analysis. The samples are analyzed for interferon (α) by either ELISA or bioassay and for tumor necrosis factor (α) by ELISA
Tumor necrosis factor (α) (TNF) concentration is determined using ELISA kits available from Genzyme, Cambridge, Mass.; R&D Systems, Minneapolis, Minn.; or Pharmingen, San Diego, Calif. according to the manufacturer's instructions.

interferon (α) [3] = experiment: Cytokine induction in human cells: interferon (α) secreted by PBMCs (ELISA or bioassay); format: cell-based; details: 18 to 24 hours
Protocol: as §1, §2, §3, §4, §5
Interferon is determined by bioassay using A549 human lung carcinoma cells challenged with encephalomyocarditis. […] Briefly stated the method is as follows: A549 cells are incubated with dilutions of samples or a standard interferon at 37° C. for 24 hours. The incubated cells are then infected with an inoculum of encephalomyocarditis virus. The infected cells are incubated for an additional 24 hours at 37° C. before evaluating for viral cytopathic effect. The viral cytopathic effect is quantified by staining with crystal violet followed by visual scoring of the plates. Results are expressed as alpha reference units/mL based on the value obtained for NIH Human Leukocyte IFN standard.
Interferon (α) concentration is determined by ELISA using a Human Multi-Species kit from PBL Biomedical Laboratories, New Brunswick, N.J. according to the manufacturer's instructions.

Row | Compound | melting point [°C] | Tumor Necrosis Factor Induction ([2]; Dose Concentration 0.12 μM) | Tumor Necrosis Factor Induction ([2]; Dose Concentration 0.37 μM) | Tumor Necrosis Factor Induction ([2]; Dose Concentration 1.11 μM) | Tumor Necrosis Factor Induction ([2]; Dose Concentration 3.33 μM) | Tumor Necrosis Factor Induction ([2]; Dose Concentration 10 μM) | Tumor Necrosis Factor Induction ([2]; Dose Concentration 30 μM) | Interferon (α) Induction (interferon (α) [3]; Dose Concentration 0.12 μM) | Interferon (α) Induction (interferon (α) [3]; Dose Concentration 0.37 μM) | Interferon (α) Induction (interferon (α) [3]; Dose Concentration 1.11 μM) | Interferon (α) Induction (interferon (α) [3]; Dose Concentration 3.33 μM) | Interferon (α) Induction (interferon (α) [3]; Dose Concentration 10 μM) | Interferon (α) Induction (interferon (α) [3]; Dose Concentration 30 μM) | other results
1 | Nc1nc2ccccc2c2sc(N3CCCC3)nc12 [Example 54, 2-(1-Pyrrolidino)thiazolo[4,5-c]quinolin-4-amine] | 259 to 261 |  |  |  |  |  |  |  |  |  |  |  |  | Interferon (α) Induction in Human Cells (interferon (α) [1]; Dose Concentration 0.01 μg/mL): −; Interferon (α) Induction in Human Cells (interferon (α) [1]; Dose Concentration 0.05 μg/mL): −; Interferon (α) Induction in Human Cells (interferon (α) [1]; Dose Concentration 0.10 μg/mL): −; Interferon (α) Induction in Human Cells (interferon (α) [1]; Dose Concentration 0.50 μg/mL): −; Interferon (α) Induction in Human Cells (interferon (α) [1]; Dose Concentration 1.0 μg/mL): −; Interferon (α) Induction in Human Cells (interferon (α) [1]; Dose Concentration 5.0 μg/mL): −; Interferon (α) Induction in Human Cells (interferon (α) [1]; Dose Concentration 10.0 μg/mL): −; Interferon (α) Induction in Human Cells (interferon (α) [1]; Dose Concentration 25.0 μg/mL): +; Interferon (α) Induction in Human Cells (interferon (α) [1]; Dose Concentration 50.0 μg/mL): +
2 | CCCCc1nc2c(N)nc3cccnc3c2s1 [Example 58, 2-Butylthiazolo[4,5-c][1,5]naphthyridin-4-amine] | 136 to 138 | − | + | + | + | + | + | − | − | − | − | ± | ± | 
3 | CCCc1nc2c(N)nc3cccnc3c2s1 [Example 60, 2-Propylthiazolo[4,5-c][1,5]naphthyridin-4-amine] | 135 to 136 | − | ± | + | + | + | + | − | − | − | − | − | − | 
4 | CCCc1nc2c(N)nc3cc(Cl)ccc3c2s1 [Example 63, 7-Chloro-2-propylthiazolo[4,5-c]quinolin-4-amine] | 159 to 160 | + | + | + | + | + | + | − | − | + | + | + | − | 
5 | CCCc1nc2c(N)nc3cc(OC)ccc3c2s1 [Example 64, 7-Methoxy-2-propylthiazolo[4,5-c]quinolin-4-amine] | 152 to 154 | + | + | + | + | + | + | − | + | + | + | + | + | 
